Data reported in patent publication US20250171495A1, “MUTLI-TARGETED SERINE PROTEASE INHIBITORS FOR TREATMENT OF CANCER AND VIRAL INFECTION” (Washington University, priority 2023, published 2025).
Like-named read-outs stand apart in the source and are kept apart here. Numbered stars: 1 amine (or outer) side, 2 acyl side, 3 side chain; on linkers, the order of the positions; unused ones are H or OH. Square brackets hold non-standard residues; d marks the D form. Peptide text beside a SMILES is read from it. X1 = N=C(N)NCCC[C@H](N[*:1])C(=O)c1nc2ccc(C(=O)[*:2])cc2s1

How the values were obtained:
VSV-SARS-CoV-2 [1] = tested on: VSV-SARS-CoV-2
VSV-SARS-CoV-2 [2] = test: microbe, parasite or virus in culture; details: Vesicular stomatitis virus, Calu-3, in Homo sapiens, read-out: VSV SARS CoV-2 Cell Entry EC50 (nM)

SMILES: CC(=O)N[C@H]1CC(=O)NCCCC[C@@H](C(=O)N[C@@H](CCCNC(=N)N)C(=O)c2nc3ccccc3s2)NC(=O)[C@H](CC(C)C)NC1=O [VD2173, Ac-Cyclo(DLK)—R-ketobenzothiazole]
- EC50 (VSV-SARS-CoV-2 [1]; VSV-): 197 nM

SMILES: CC(=O)N[C@H]1Cc2ccc(cc2)OCCCC[C@@H](C(=O)N[C@@H](CCCNC(=N)N)C(=O)c2nc3ccccc3s2)NC(=O)[C@@H](Cc2c[nH]c3ccccc23)NC1=O [VD4162B, N-[(S)-1-[(1,3-benzothiazol-2-yl)carbonyl]-4-guanidinobutyl]-(7S,10R,13S)-13-acetylamino-10-[(3-indolyl)methyl]-9,12-dioxo-2-oxa-8,11-diazabicyclo[13.2.2]nonadeca-1(17),15,18-triene-7-carboxamide]
- EC50 (VSV-SARS-CoV-2 [2]): 2060 nM

SMILES: CC(=O)N[C@H]1Cc2ccc(cc2)Oc2cccc(c2)C[C@@H](C(=O)N[C@@H](CCCNC(=N)N)C(=O)c2nc3ccccc3s2)NC(=O)[C@H](CC(C)C)NC1=O [VD5064B, N-[(S)-1-[(1,3-benzothiazol-2-yl)carbonyl]-4-guanidinobutyl]-(9S,12S,15S)-15-acetylamino-12-isobutyl-11,14-dioxo-2-oxa-10,13-diazatricyclo[15.2.2.1^3,^7]docosa-1(19),3,5,7(22),17,20-hexaene-9-carboxamide]
- EC50 (VSV-SARS-CoV-2 [2]): 8370 nM

SMILES: CC(=O)N[C@@H](CO)C(=O)N[C@@H](CCCCN)C(=O)N[C@@H](Cc1ccccc1)C(=O)N[C@@H](CCCNC(=N)N)C(=O)c1nccs1 [ZFH6095, N-[(S)-1-[N-(S)-4-guanidino-1-[(1,3-thiazol-2-yl)carbonyl]butylcarbamoyl]-2-phenylethyl](S)-2-[(S)-2-acetylamino-3-hydroxypropionylamino]-6-aminohexanamide]
- EC50 (VSV-SARS-CoV-2 [2]): 1160 nM

SMILES: CC(=O)N[C@@H](CCCCN)C(=O)N[C@@H](CCC(N)=O)C(=O)N[C@@H](Cc1ccccc1)C(=O)N[C@@H](CCCNC(=N)N)C(=O)c1nccs1 [ZFH6101, N-[(S)-1-[N-(S)-4-guanidino-1-[(1,3-thiazol-2-yl)carbonyl]butylcarbamoyl]-2-phenylethyl](S)-2-[(S)-1-acetylamino-5-aminopentylcarbonylamino] glutaramide]
- EC50 (VSV-SARS-CoV-2 [2]): 262 nM

SMILES: CC(=O)N[C@@H](CO)C(=O)N[C@@H](CCC(N)=O)C(=O)N[C@@H](CC(C)C)C(=O)N[C@@H](CCCNC(=N)N)C(=O)c1nccs1 [ZFH6138, N-[(S)-3-methyl-1-[N-(S)-4-guanidino-1-[(1,3-thiazol-2-yl)carbonyl]butylcarbamoyl]butyl](S)-2-[(S)-2-acetylamino-3-hydroxypropionylamino]glutaramide]
- EC50 (VSV-SARS-CoV-2 [2]): 1320 nM

SMILES: CC(=O)N[C@@H](CC(C)C)C(=O)N[C@@H](CC(C)C)C(=O)N[C@@H](CCCNC(=N)N)C(=O)c1nccs1 [ZFH6201-1, N-[(S)-4-guanidino-1-[(1,3-thiazol-2-yl)carbonyl]butyl](S)-2-[(S)-2-acetylamino-4-methylvalerylamino]-4-methylvaleramide]
- EC50 (VSV-SARS-CoV-2 [2]): 1840 nM

SMILES: CC(=O)N[C@@H](CCCCN)C(=O)N[C@@H](CCC(N)=O)C(=O)N[C@@H](CC(C)C)C(=O)N[C@@H](CCCNC(=N)N)C(=O)c1nc2ccccc2s1 [ZFH7006, N-[(S)-3-methyl-1-[N-(S)-1-[(1,3-benzothiazol-2-yl)carbonyl]-4-guanidinobutylcarbamoyl]butyl](S)-2-[(S)-1-acetylamino-5-aminopentylcarbonyl-amino]glutaramide]
- EC50 (VSV-SARS-CoV-2 [2]): 572 nM
- EC50 (VSV-SARS-CoV-2 [1]; read-out: VSV SARS CoV-2 Cell Entry EC50): 652 nM

SMILES: CC(=O)N[C@@H](CO)C(=O)N[C@@H](CCCCN)C(=O)N[C@@H](CC(C)C)C(=O)N[C@@H](CCCNC(=N)N)C(=O)c1nc2ccccc2s1 [ZFH7053, N-[(S)-3-methyl-1-[N-(S)-1-[(1,3-benzothiazol-2-yl)carbonyl]-4-guanidinobutylcarbamoyl]butyl](S)-2-[(S)-2-acetylamino-3-hydroxypropionylamino]-6-aminohexanamide]
- EC50 (VSV-SARS-CoV-2 [2]): 4270 nM

SMILES: CC(=O)N[C@@H](Cc1ccccc1)C(=O)N[C@@H](CC(C)C)C(=O)N[C@@H](Cc1ccccc1)C(=O)N[C@@H](CCCNC(=N)N)C(=O)c1nc2ccccc2s1 [ZFH7063, N-[(S)-1-[N-(S)-1-[(1,3-benzothiazol-2-yl)carbonyl]-4-guanidinobutylcarbamoyl]-2-phenylethyl](S)-2-[(S)-2-acetylamino-3-phenylpropionylamino]-4-methylvaleramide]
- EC50 (VSV-SARS-CoV-2 [2]): 101 nM

SMILES: CC(=O)N[C@@H](CO)C(=O)N[C@@H](CCCCN)C(=O)N[C@@H](CC(C)C)C(=O)N[C@@H](CCCNC(=N)N)C(=O)c1nc2ccc(C(=O)N[C@H](C(N)=O)C(C)C)cc2s1 [ZFH7116, N-[(S)-1-carbamoyl-2-methylpropyl]-2-[(S)-2-[(S)-2-[(S)-1-[(S)-2-acetylamino-3-hydroxypropionylamino]-5-aminopentylcarbonyl-amino]-4-methylvalerylamino]-5-guanidinovaleryl]-1,3-benzothiazole-6-carboxamide] (Ac-SKL[X1]V-NH2)
- EC50 (VSV-SARS-CoV-2 [2]): 489 nM
